Laboratory results from ChEMBL document CHEMBL4837199, “Design and evaluation of novel piperidine HIV-1 protease inhibitors with potency against DRV-resistant variants” (Eur J Med Chem, 2021).

Columns and labels:
[1] = Selectivity index, ratio of CC50 for cytotoxicity against HEK293T cells to IC50 of antiviral activity against HIV1; format: toxicity, cell-based; details: human, read-out: Ratio CC50/IC50
[2] = test system: Human immunodeficiency virus 1; assay: Antiviral activity against HIV1; format: functional, organism-based
[3] = Cytotoxicity against HEK293T cells assessed as reduction in cell viability incubated for 24 hrs by CCK8 assay; format: cell-based, HEK-293T; details: human
[4] = target: Human immunodeficiency virus type 1 protease (Human immunodeficiency virus 1, UniProt Q72874); assay: Inhibition of wild type HIV1 protease using Arg-Glu (EDANS)-Ser-Gln-Asn-Tyr-Pro-Ile-Val-Gln-Lys(DABCYL)-Arg as substrate preincubated for 20 to 30 mins followed by substrate addition and measured for 10 mins by FRET assay
[5] = test system: Human immunodeficiency virus 1; assay: (§1) Antiviral activity against HIV1 Env-deficient VSV-G pseudotyped virus infected in human SUP-T1 cells infected with supernatant of compound treated virus-producing 293T cells assessed as inhibition of late stage viral production at 10 uM treated for 48 hrs with virus-producing 293T cells followed by SUP-T1 cells infection for 48 hrs by single-round infection luciferase assay relative to control; format: functional; details: Human immunodeficiency virus 1, SUP-T1, time 96 hrs
[6] = test system: Human immunodeficiency virus 1; assay: Antiviral activity against HIV1 (NL4-3) Env-deficient VSV-G pseudotyped virus infected in human SUP-T1 cells assessed as inhibition of early stage viral production at 10 uM measured after 48 hrs by luciferase assay relative to control; format: functional; details: Human immunodeficiency virus 1, NL4-3, SUP-T1
[7] = target: Human immunodeficiency virus type 1 protease (Human immunodeficiency virus 1) (UniProt Q72874); assay: Potency index, ratio of DRV Ki to test compound Ki for inhibition of wild type HIV1 protease using Arg-Glu (EDANS)-Ser-Gln-Asn-Tyr-Pro-Ile-Val-Gln-Lys(DABCYL)-Arg as substrate preincubated for 20 to 30 mins followed by substrate addition and measured for 10 mins by FRET assay; details: time 30-40 min
[8] = test system: Human immunodeficiency virus 1; assay: Antiviral activity against DRV resistant HIV1 infected in human MT4 cells assessed as reduction in viral replication by measuring reduction in p24 Gag production by chemiluminescent-EIA; format: functional, organism-based; details: Human immunodeficiency virus 1, MT4
[9] = test system: Human immunodeficiency virus 1; assay: Antiviral activity against HIV1 subtype C isolate 11929; format: functional, organism-based; details: Human immunodeficiency virus 1, subtype C isolate 11929
[10] = test system: Human immunodeficiency virus 1; assay: Antiviral activity against HIV1 subtype C isolate-plndie; format: functional, organism-based; details: Human immunodeficiency virus 1, subtype C isolate-plndie
[11] = test system: Human immunodeficiency virus 1; assay: Antiviral activity against HIV1 subtype C isolate 11941; format: functional, organism-based
[12] = Resistance index, ratio of IC50 for DRV resistant HIV1 infected in human MT4 cells to IC50 for HIV1 NL4-3 infected in human MT4 cells; format: functional
[13] = test system: Human immunodeficiency virus 1; assay: Antiviral activity against HIV1 subtype C isolate 11928; format: functional, organism-based
[14] = test system: Human immunodeficiency virus 1; assay: Antiviral activity against HIV1 NL4-3 infected in human MT4 cells assessed as reduction in viral replication by measuring reduction in p24 Gag production by chemiluminescent-EIA; format: functional, organism-based; details: Human immunodeficiency virus 1, NL4-3, MT4
[15] = test system: Human immunodeficiency virus 1; assay: as §1, with “100 nM” for “10 uM”; format: functional; details: Human immunodeficiency virus 1, SUP-T1, time 96 hrs

SMILES | selectivity ratio [1] | IC50 [2] | CC50 at 24 h [3] | Ki [4] | inhibition at 10 µM [5] | further results
COc1ccc(S(=O)(=O)N(CC(C)C)C[C@@H](O)[C@H](Cc2ccccc2)NC(=O)[C@@H]2CCCCN2)cc1 | > 68500 | 1.46 nM | > 100000 nM | 0.33 nM | 79% | 
CC(C)CN(C[C@@H](O)[C@H](Cc1ccccc1)NC(=O)[C@@H]1CCCN(C)C1)S(=O)(=O)c1ccc(N)cc1 | > 74100 | 1.35 nM | > 100000 nM | 0.3 nM | 83% | 
COc1ccc(S(=O)(=O)N(CC(C)C)C[C@@H](O)[C@H](Cc2ccccc2)NC(=O)[C@@H]2CCCN(C)C2)cc1 | > 556000 | 0.18 nM | > 100000 nM | 0.04 nM | 98% | inhibition at 10 µM [6]: 5%
CC(C)CN(C[C@@H](O)[C@H](Cc1ccccc1)NC(=O)[C@H]1CCCNC1)S(=O)(=O)c1ccc(C(F)(F)F)cc1 |  | 196 nM |  | 43.9 nM |  | 
CC(C)CN(C[C@@H](O)[C@H](Cc1ccccc1)NC(=O)[C@@H]1CCCN(C)C1)S(=O)(=O)c1ccc(C(F)(F)F)cc1 | > 119000 | 0.84 nM | > 100000 nM | 0.19 nM | 88% | 
CC(C)CN(C[C@@H](O)[C@H](Cc1ccccc1)NC(=O)C1CCNCC1)S(=O)(=O)c1ccc(N)cc1 |  | 24.6 nM |  | 5.52 nM |  | 
CC(C)CN(C[C@@H](O)[C@H](Cc1ccccc1)NC(=O)[C@@H]1CCCCN1)S(=O)(=O)c1ccc(N)cc1 | > 11100 | 9.04 nM | > 100000 nM | 2.03 nM |  | 
CC(C)CN(C[C@@H](O)[C@H](Cc1ccccc1)NC(=O)OC[C@H]1CCCNC1)S(=O)(=O)c1ccc(C(F)(F)F)cc1 | > 8580 | 11.7 nM | > 100000 nM | 2.61 nM |  | 
CC(C)CN(C[C@@H](O)[C@H](Cc1ccccc1)NC(=O)[C@@H]1CCCNC1)S(=O)(=O)c1ccc(C(F)(F)F)cc1 | > 222000 | 0.45 nM | > 100000 nM | 0.1 nM |  | 
CC(C)CN(C[C@@H](O)[C@H](Cc1ccccc1)NC(=O)[C@@H]1CCCNC1)S(=O)(=O)c1ccc(N)cc1 | > 82600 | 1.21 nM | > 100000 nM | 0.27 nM | 81% | 
CC(C)CN(C[C@@H](O)[C@H](Cc1ccccc1)NC(=O)[C@H]1CCCNC1)S(=O)(=O)c1ccc(N)cc1 |  | 181 nM |  | 40.5 nM |  | 
CC(C)CN(C[C@@H](O)[C@H](Cc1ccccc1)NC(=O)[C@@H]1CCCCN1)S(=O)(=O)c1ccc(C(F)(F)F)cc1 |  | 20.6 nM |  | 4.61 nM |  | 
CC(C)CN(C[C@@H](O)[C@H](Cc1ccccc1)NC(=O)OC[C@H]1CCCNC1)S(=O)(=O)c1ccc(N)cc1 | > 22100 | 4.53 nM | > 100000 nM | 1.01 nM |  | 
COc1ccc(S(=O)(=O)N(CC(C)C)C[C@@H](O)[C@H](Cc2ccccc2)NC(=O)[C@@H]2CCCNC2)cc1 | > 769000 | 0.13 nM | > 100000 nM | 0.029 nM | 99% | inhibition at 10 µM [6]: 3%; Ratio Ki [7]: 6; EC50 [8]: 900 nM; EC50 [9]: 14800 nM; EC50 [10]: 26300 nM; EC50 [11]: 11800 nM; Ratio IC50 [12]: 1.8; EC50 [13]: 49400 nM; EC50 [14]: 500 nM
CC(C)CN(C[C@@H](O)[C@H](Cc1ccccc1)NC(=O)OC[C@@H]1CCCNC1)S(=O)(=O)c1ccc(C(F)(F)F)cc1 | > 13000 | 7.71 nM | > 100000 nM | 1.73 nM |  | 
CC(C)CN(C[C@@H](O)[C@H](Cc1ccccc1)NC(=O)O[C@H]1CO[C@H]2OCC[C@H]21)S(=O)(=O)c1ccc(N)cc1 |  |  | > 100000 nM |  |  | EC50 [8]: 240 nM; EC50 [9]: 3630 nM; inhibition at 0.1 µM [15]: 100%; EC50 [10]: 1260 nM; EC50 [11]: 910 nM; EC50 [13]: 2010 nM; EC50 [14]: 3.9 nM
CC(C)CN(C[C@@H](O)[C@H](Cc1ccccc1)NC(=O)OC[C@@H]1CCCNC1)S(=O)(=O)c1ccc(N)cc1 | > 78700 | 1.27 nM | > 100000 nM | 0.28 nM | 71% | 
COc1ccc(S(=O)(=O)N(CC(C)C)C[C@@H](O)[C@H](Cc2ccccc2)NC(=O)OC[C@H]2CCCNC2)cc1 | > 74100 | 1.35 nM | > 100000 nM | 0.3 nM |  | 
COc1ccc(S(=O)(=O)N(CC(C)C)C[C@@H](O)[C@H](Cc2ccccc2)NC(=O)OC[C@@H]2CCCNC2)cc1 | > 233000 | 0.43 nM | > 100000 nM | 0.1 nM | 94% | 
COc1ccc(S(=O)(=O)N(CC(C)C)C[C@@H](O)[C@H](Cc2ccccc2)NC(=O)C2CCNCC2)cc1 | > 40800 | 2.45 nM | > 100000 nM | 0.55 nM |  | 
CC(C)CN(C[C@@H](O)[C@H](Cc1ccccc1)NC(=O)C1CCNCC1)S(=O)(=O)c1ccc(C(F)(F)F)cc1 |  | 26.5 nM |  | 5.93 nM |  | 
COc1ccc(S(=O)(=O)N(CC(C)C)C[C@@H](O)[C@H](Cc2ccccc2)NC(=O)[C@H]2CCCNC2)cc1 |  | 44.6 nM |  | 9.99 nM | 93% | 
